Structures are written as SMILES. ≈ marks a conversion by molar mass, not a printed value.

Holding throughout (format): functional
Assay [1] concerns Pseudomonas aeruginosa. The assay can be described thus: Antibacterial activity against Pseudomonas aeruginosa ATCC 27853 assessed as inhibition of bacterial growth incubated for 24 hrs.
Assay [2] deals with Staphylococcus aureus. In words: Antibacterial activity against methicillin resistant Staphylococcus aureus clinical isolate assessed as inhibition of bacterial growth incubated for 24 hrs.
For assay [3], the system named is Staphylococcus aureus. In words: Antibacterial activity against Staphylococcus aureus clinical isolate assessed as inhibition of bacterial growth incubated for 24 hrs.
Assay [4] concerns Acinetobacter baumannii. The assay can be described thus: Antibacterial activity against Acinetobacter baumannii clinical isolate assessed as inhibition of bacterial growth incubated for 24 hrs.
In assay [5] the test system is Escherichia coli. In words: Antibacterial activity against Escherichia coli ATCC 25922 assessed as inhibition of bacterial growth incubated for 24 hrs.
Assay [6] relates to Enterococcus faecalis. The assay can be described thus: Antibacterial activity against Enterococcus faecalis clinical isolate assessed as inhibition of bacterial growth incubated for 24 hrs.
For assay [7], the system named is Staphylococcus aureus. In words: Antibacterial activity against Staphylococcus aureus ATCC 25923 assessed as inhibition of bacterial growth incubated for 24 hrs.
In assay [8] the test system is Staphylococcus aureus. The assay can be described thus: Antibacterial activity against Staphylococcus aureus ATCC 29213 assessed as inhibition of bacterial growth incubated for 24 hrs.
Assay [9] has as its system Escherichia coli. In words: Antibacterial activity against Escherichia coli clinical isolate assessed as inhibition of bacterial growth incubated for 24 hrs.
Assay [10] has as its system Klebsiella pneumoniae. In words: Antibacterial activity against Klebsiella pneumoniae clinical isolate assessed as inhibition of bacterial growth incubated for 24 hrs.
Assay [11] deals with Pseudomonas aeruginosa. The assay can be described thus: Antibacterial activity against Pseudomonas aeruginosa clinical isolate assessed as inhibition of bacterial growth incubated for 24 hrs.

As to `N#CCc1cc2c(cc1F)c(=O)c(C(=O)O)cn2Cc1cc(F)ccc1F`, the MIC stood at 256 µg/mL (≈ 688 µM) in assay [1]; 256 µg/mL (≈ 688 µM) in assay [2]; 4 µg/mL (≈ 10.7 µM) in assay [3]; 64 µg/mL (≈ 172 µM) in [4]; 256 µg/mL (≈ 688 µM) in [5]; 256 µg/mL (≈ 688 µM) in assay [6]. For the same compound, the MIC in assay [7] was found to be 256 µg/mL (≈ 688 µM); in [8], 256 µg/mL (≈ 688 µM); in assay [9] it was 256 µg/mL (≈ 688 µM); in assay [10], 16 µg/mL (≈ 43 µM); in assay [11] it was 256 µg/mL (≈ 688 µM).
With `CCCCCCn1cc(C(=O)O)c(=O)c2cc(F)c(CC#N)cc21`, the MIC turned out to be 256 µg/mL (≈ 775 µM) in [1]; 256 µg/mL (≈ 775 µM) in assay [2]; 256 µg/mL (≈ 775 µM) in assay [3]; 256 µg/mL (≈ 775 µM) in [4]; 0.5 µg/mL (≈ 1.51 µM) in assay [5]; 256 µg/mL (≈ 775 µM) in assay [6]. The MIC was 0.25 µg/mL (≈ 0.757 µM) in assay [7]; 256 µg/mL (≈ 775 µM) in assay [8]; 4 µg/mL (≈ 12.1 µM) in [9]; 8 µg/mL (≈ 24.2 µM) in [10]; 2 µg/mL (≈ 6.05 µM) in assay [11].
Take `C=CCn1cc(C(=O)O)c(=O)c2cc(F)c(CC#N)cc21`: the MIC in [1] was 4 µg/mL (≈ 14 µM); in assay [2], 0.5 µg/mL (≈ 1.75 µM); in [3], 2 µg/mL (≈ 6.99 µM); in assay [4], 8 µg/mL (≈ 27.9 µM); in [5] it was 0.5 µg/mL (≈ 1.75 µM); in [6], 16 µg/mL (≈ 55.9 µM). Further, the MIC in assay [7] worked out at 0.5 µg/mL (≈ 1.75 µM); in assay [8], 4 µg/mL (≈ 14 µM); in [9] it was 256 µg/mL (≈ 894 µM); in assay [10] it was 1 µg/mL (≈ 3.49 µM); in assay [11] it was 0.5 µg/mL (≈ 1.75 µM).
Consider `N#CCc1cc2c(cc1F)c(=O)c(C(=O)O)cn2CC1CCC1`, for which the MIC in assay [1] stood at 128 µg/mL (≈ 407 µM); in assay [2], 128 µg/mL (≈ 407 µM); in assay [3], 64 µg/mL (≈ 204 µM); in assay [4], 256 µg/mL (≈ 814 µM); in [5], 128 µg/mL (≈ 407 µM); in assay [6], 32 µg/mL (≈ 102 µM). Moreover, the MIC in assay [7] came out at 0.5 µg/mL (≈ 1.59 µM); in assay [8], 256 µg/mL (≈ 814 µM); in assay [9], 128 µg/mL (≈ 407 µM); in assay [10] it was 256 µg/mL (≈ 814 µM); in assay [11], 256 µg/mL (≈ 814 µM).
Regarding `N#CCc1cc2c(cc1F)c(=O)c(C(=O)O)cn2Cc1c(F)cccc1F`, the MIC amounted to 4 µg/mL (≈ 10.7 µM) in assay [1]; 4 µg/mL (≈ 10.7 µM) in assay [2]; 4 µg/mL (≈ 10.7 µM) in assay [3]; 8 µg/mL (≈ 21.5 µM) in assay [4]; 2 µg/mL (≈ 5.37 µM) in assay [5]; 2 µg/mL (≈ 5.37 µM) in assay [6]. For the same compound, the MIC in [7] stood at 4 µg/mL (≈ 10.7 µM); in assay [8] it was 4 µg/mL (≈ 10.7 µM); in assay [9], 32 µg/mL (≈ 86 µM); in assay [10], 8 µg/mL (≈ 21.5 µM); in [11], 4 µg/mL (≈ 10.7 µM).
As for `CC(C)=CCn1cc(C(=O)O)c(=O)c2cc(F)c(CC#N)cc21`, the minimum inhibitory concentration (MIC) stood at 2 µg/mL (≈ 6.36 µM) in assay [1]; 1 µg/mL (≈ 3.18 µM) in assay [2]; 256 µg/mL (≈ 814 µM) in assay [3]; 256 µg/mL (≈ 814 µM) in assay [4]; 0.5 µg/mL (≈ 1.59 µM) in assay [5]; 128 µg/mL (≈ 407 µM) in assay [6]. Also, the MIC was determined as 0.25 µg/mL (≈ 0.795 µM) in [7]; 16 µg/mL (≈ 50.9 µM) in [8]; 256 µg/mL (≈ 814 µM) in assay [9]; 0.5 µg/mL (≈ 1.59 µM) in assay [10]; 0.5 µg/mL (≈ 1.59 µM) in assay [11].
For `CCCCCn1cc(C(=O)O)c(=O)c2cc(F)c(CC#N)cc21`, the MIC in assay [1] worked out at 4 µg/mL (≈ 12.6 µM); in [2], 0.5 µg/mL (≈ 1.58 µM); in [3], 256 µg/mL (≈ 809 µM); in assay [4], 256 µg/mL (≈ 809 µM); in assay [5] it was 0.25 µg/mL (≈ 0.79 µM); in [6], 256 µg/mL (≈ 809 µM). The MIC turned out to be 0.25 µg/mL (≈ 0.79 µM) in assay [7]; 8 µg/mL (≈ 25.3 µM) in [8]; 16 µg/mL (≈ 50.6 µM) in assay [9]; 1 µg/mL (≈ 3.16 µM) in assay [10]; 1 µg/mL (≈ 3.16 µM) in assay [11].
As for `N#CCc1cc2c(cc1F)c(=O)c(C(=O)O)cn2CC1CC1`, the MIC in [1] was 1 µg/mL (≈ 3.33 µM); in assay [2] it was 0.5 µg/mL (≈ 1.67 µM); in [3], 256 µg/mL (≈ 853 µM); in [4], 0.25 µg/mL (≈ 0.833 µM); in assay [5], 0.25 µg/mL (≈ 0.833 µM); in assay [6] it was 64 µg/mL (≈ 213 µM). Besides, the MIC in [7] amounted to 0.25 µg/mL (≈ 0.833 µM); in [8], 1 µg/mL (≈ 3.33 µM); in [9] it was 1 µg/mL (≈ 3.33 µM); in assay [10], 2 µg/mL (≈ 6.66 µM); in assay [11], 0.25 µg/mL (≈ 0.833 µM).
Regarding `N#CCc1cc2c(cc1F)c(=O)c(C(=O)O)cn2Cc1ccc([N+](=O)[O-])cc1`, the MIC in assay [1] turned out to be 32 µg/mL (≈ 83.9 µM); in [2], 128 µg/mL (≈ 336 µM); in [3], 256 µg/mL (≈ 671 µM); in [4], 256 µg/mL (≈ 671 µM); in assay [5], 128 µg/mL (≈ 336 µM); in [6], 8 µg/mL (≈ 21 µM). In addition, the minimum inhibitory concentration (MIC) in assay [7] was 32 µg/mL (≈ 83.9 µM); in [8], 256 µg/mL (≈ 671 µM); in assay [9], 256 µg/mL (≈ 671 µM); in assay [10], 8 µg/mL (≈ 21 µM); in [11], 4 µg/mL (≈ 10.5 µM).
Take `N#CCc1cc2c(cc1F)c(=O)c(C(=O)O)cn2CCN1CCOCC1`: the MIC amounted to 16 µg/mL (≈ 44.5 µM) in [1]; 8 µg/mL (≈ 22.3 µM) in assay [2]; 16 µg/mL (≈ 44.5 µM) in assay [3]; 8 µg/mL (≈ 22.3 µM) in assay [4]; 4 µg/mL (≈ 11.1 µM) in assay [5]; 16 µg/mL (≈ 44.5 µM) in assay [6]. Also, the MIC was 1 µg/mL (≈ 2.78 µM) in assay [7]; 4 µg/mL (≈ 11.1 µM) in assay [8]; 16 µg/mL (≈ 44.5 µM) in assay [9]; 8 µg/mL (≈ 22.3 µM) in [10]; 2 µg/mL (≈ 5.57 µM) in [11].
